{"source": "patent US12065445B2", "about": "“CDK2 inhibitors and methods of using the same” (Cedilla Therapeutics, Inc., priority 2021, dated 2024)", "key": {"[1]": {"system": "Kuramochi cells labeled with mApple-H2B", "experiment": "IncuCyte Cell Proliferation Assay", "assay_type": "cell-based", "conditions": "72 h", "summary_of_the_method": "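Cells imaged at 0 and 72 h after compound treatment (10 points, ½ log dilution, 20 μM top), with fluorescent nuclei counted. Fold change in count was normalized to DMSO wells and fitted to dose-response curves to give GI50.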"}, "Kuramochi cells": {"system": "Kuramochi cells", "experiment": "BrdU Cell Proliferation Assay", "assay_type": "cell-based", "conditions": "read-out: BrdU - KURAMOCHI.1: IC50", "summary_of_the_method": "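Kuramochi cells were seeded at 2,000 cells/well, adhered overnight, then treated with a 10-point, 3-fold compound dilution series for 4 days. Proliferation was measured by a 1-hour BrdU pulse, anti-BrdU peroxidase colorimetric ELISA and 450 nm absorbance. Values were background-subtracted and normalized to DMSO wells.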"}}, "data": [{"molecule": "CNC(=O)C(NC(=O)[C@@H]1CN(C(=O)c2cncs2)CC12CN(C(=O)[C@H]1CC1(C)C)C2)C(O)Cc1ccccc1", "note": "(stereo partly shown) [I-356]", "values": [{"measurement": "IC50", "setting": "[1]", "value": "> 20", "unit": "µM"}, {"measurement": "IC50", "setting": "Kuramochi cells", "value": "> 10", "unit": "µM"}]}, {"molecule": "C[C@@H](OC1(C2CCCCC2)CC1)[C@H](NC(=O)[C@@H]1CN(C(=O)c2cncs2)CC12CN(C(=O)[C@H]1CC1(C)C)C2)C(=O)N1CCCCC1", "note": "[I-357]", "values": [{"measurement": "IC50", "setting": "[1]", "value": "5 to 20", "unit": "µM"}, {"measurement": "IC50", "setting": "Kuramochi cells", "value": "5 to 10", "unit": "µM"}]}, {"molecule": "CNC(=O)[C@@H](NC(=O)[C@@H]1CN(C(=O)Cc2cn[nH]c2)CC12CN(C(=O)[C@H]1CC1(C)C)C2)[C@@H](C)OCc1ccccc1", "note": "[I-358]", "values": [{"measurement": "IC50", "setting": "[1]", "value": "> 20", "unit": "µM"}, {"measurement": "IC50", "setting": "Kuramochi cells", "value": "> 10", "unit": "µM"}]}, {"molecule": "CC1(C)C[C@@H]1C(=O)N1CC2(CN(C(=O)c3cnn(Cc4ccccc4)c3)C[C@H]2C(=O)NCc2cccnn2)C1", "note": "[I-359]", "values": [{"measurement": "IC50", "setting": "[1]", "value": "> 20", "unit": "µM"}, {"measurement": "IC50", "setting": "Kuramochi cells", "value": "> 10", "unit": "µM"}]}, {"molecule": "COC[C@H]1CCCN(C(=O)[C@@H](NC(=O)[C@@H]2CN(C(=O)c3cncs3)CC23CN(C(=O)[C@H]2CC2(C)C)C3)[C@@H](C)OC(C)C2CCC(F)(F)CC2)C1", "note": "(stereo partly shown) [I-360]", "values": [{"measurement": "IC50", "setting": "[1]", "value": "0.5 to 5", "unit": "µM"}, {"measurement": "IC50", "setting": "Kuramochi cells", "value": "0.5 to 5", "unit": "µM"}]}, {"molecule": "CC(O[C@H](C)[C@H](NC(=O)[C@@H]1CN(C(=O)c2cncs2)CC12CN(C(=O)[C@H]1CC1(C)C)C2)C(=O)N1CCC(F)(F)CC1)C1CCC(F)(F)CC1", "note": "(stereo partly shown) [I-361]", "values": [{"measurement": "IC50", "setting": "[1]", "value": "0.5 to 5", "unit": "µM"}, {"measurement": "IC50", "setting": "Kuramochi cells", "value": "0.5 to 5", "unit": "µM"}]}, {"molecule": "CNC(=O)C(NC(=O)[C@@H]1CN(C(=O)c2cncs2)CC12CN(C(=O)[C@H]1CC1(C)C)C2)c1cccc(C2CCCCC2)n1", "note": "(stereo partly shown) [I-362]", "values": [{"measurement": "IC50", "setting": "[1]", "value": "5 to 20", "unit": "µM"}, {"measurement": "IC50", "setting": "Kuramochi cells", "value": "0.5 to 5", "unit": "µM"}]}, {"molecule": "Cc1ccc(CNC(=O)[C@@H]2CN(C(=O)c3cnn(Cc4ccccc4)c3)CC23CN(C(=O)[C@H]2CC2(C)C)C3)cc1", "note": "[I-363]", "values": [{"measurement": "IC50", "setting": "[1]", "value": "5 to 20", "unit": "µM"}, {"measurement": "IC50", "setting": "Kuramochi cells", "value": "5 to 10", "unit": "µM"}]}, {"molecule": "Cc1ccc(CNC(=O)[C@@H]2CN(C(=O)c3cnn(Cc4ccccc4)c3)CC23CN(C(=O)[C@H]2CC2(C)C)C3)cn1", "note": "[I-364]", "values": [{"measurement": "IC50", "setting": "[1]", "value": "5 to 20", "unit": "µM"}, {"measurement": "IC50", "setting": "Kuramochi cells", "value": "> 10", "unit": "µM"}]}, {"molecule": "Cc1ccc(CNC(=O)[C@@H]2CN(C(=O)c3cnn(Cc4ccccc4)c3)CC23CN(C(=O)[C@H]2CC2(C)C)C3)nc1", "note": "[I-365]", "values": [{"measurement": "IC50", "setting": "[1]", "value": "> 20", "unit": "µM"}, {"measurement": "IC50", "setting": "Kuramochi cells", "value": "> 10", "unit": "µM"}]}, {"molecule": "Cc1ccc(C(C)NC(=O)[C@@H]2CN(C(=O)c3cnn(Cc4ccccc4)c3)CC23CN(C(=O)[C@H]2CC2(C)C)C3)nn1", "note": "(stereo partly shown) [I-366]", "values": [{"measurement": "IC50", "setting": "[1]", "value": "0.5 to 5", "unit": "µM"}, {"measurement": "IC50", "setting": "Kuramochi cells", "value": "0.5 to 5", "unit": "µM"}]}, {"molecule": "COC[C@H]1CCCN(C(=O)[C@@H](NC(=O)[C@@H]2CN(C(=O)c3cncs3)CC23CN(C(=O)[C@H]2CC2(C)C)C3)[C@@H](C)O[C@H](C)C2CCCCC2)C1", "note": "[I-367]", "values": [{"measurement": "IC50", "setting": "[1]", "value": "0.5 to 5", "unit": "µM"}, {"measurement": "IC50", "setting": "Kuramochi cells", "value": "0.5 to 5", "unit": "µM"}]}, {"molecule": "CNC(=O)[C@@H](NC(=O)[C@@H]1CN(C(=O)c2cnn(Cc3ccccc3)c2)CC12CN(C(=O)[C@H]1CC1(C)C)C2)[C@@H](C)SCc1ccccc1", "note": "[I-368]", "values": [{"measurement": "IC50", "setting": "[1]", "value": "5 to 20", "unit": "µM"}, {"measurement": "IC50", "setting": "Kuramochi cells", "value": "> 10", "unit": "µM"}]}, {"molecule": "COC[C@H]1CCCN(C(=O)[C@@H](NC(=O)[C@@H]2CN(C(=O)c3cncs3)CC23CN(C(=O)[C@H]2CC2(C)C)C3)[C@@H](C)O[C@@H](C)C2CCCCC2)C1", "note": "[I-369]", "values": [{"measurement": "IC50", "setting": "[1]", "value": "0.5 to 5", "unit": "µM"}, {"measurement": "IC50", "setting": "Kuramochi cells", "value": "0.5 to 5", "unit": "µM"}]}, {"molecule": "CNC(=O)[C@@H](NC(=O)[C@@H]1CN(C(=O)c2cncs2)CC12CN(C(=O)[C@H]1CC1(C)C)C2)[C@@H](C)OCC1CCCC2(CC2)C1", "note": "(stereo partly shown) [I-370]", "values": [{"measurement": "IC50", "setting": "[1]", "value": "≤ 0.5", "unit": "µM"}, {"measurement": "IC50", "setting": "Kuramochi cells", "value": "≤ 0.5", "unit": "µM"}]}, {"molecule": "COc1ccc(CNC(=O)[C@@H]2CN(C(=O)c3cnn(Cc4ccccc4)c3)CC23CN(C(=O)[C@H]2CC2(C)C)C3)nn1", "note": "[I-371]", "values": [{"measurement": "IC50", "setting": "[1]", "value": "> 20", "unit": "µM"}, {"measurement": "IC50", "setting": "Kuramochi cells", "value": "> 10", "unit": "µM"}]}, {"molecule": "CNC(=O)[C@@H](NC(=O)[C@@H]1CN(C(=O)c2cnn(Cc3ccccc3)c2)CC12CN(C(=O)[C@H]1CC1(C)C)C2)[C@@H](C)OCC1CCC(C)(C)CC1", "note": "[I-372]", "values": [{"measurement": "IC50", "setting": "[1]", "value": "≤ 0.5", "unit": "µM"}, {"measurement": "IC50", "setting": "Kuramochi cells", "value": "≤ 0.5", "unit": "µM"}]}, {"molecule": "CNC(=O)[C@@H](NC(=O)[C@@H]1CN(C(=O)Cc2cnn(Cc3ccccc3)c2)CC12CN(C(=O)[C@H]1CC1(C)C)C2)[C@@H](C)OCc1ccccc1", "note": "[I-373]", "values": [{"measurement": "IC50", "setting": "[1]", "value": "> 20", "unit": "µM"}, {"measurement": "IC50", "setting": "Kuramochi cells", "value": "> 10", "unit": "µM"}]}, {"molecule": "COC[C@H]1CCCN(C(=O)[C@@H](NC(=O)[C@@H]2CN(C(=O)c3cncs3)CC23CN(C(=O)[C@H]2CC2(C)C)C3)[C@@H](C)OC(C)C2CCCCC2)C1", "note": "(stereo partly shown) [I-374]", "values": [{"measurement": "IC50", "setting": "[1]", "value": "0.5 to 5", "unit": "µM"}, {"measurement": "IC50", "setting": "Kuramochi cells", "value": "0.5 to 5", "unit": "µM"}]}, {"molecule": "CNC(=O)[C@@H](NC(=O)[C@@H]1CN(C(=O)c2cncs2)CC12CN(C(=O)[C@H]1CC1(C)C)C2)C1(OCc2ccccc2)CC1", "note": "[I-375]", "values": [{"measurement": "IC50", "setting": "[1]", "value": "> 20", "unit": "µM"}, {"measurement": "IC50", "setting": "Kuramochi cells", "value": "> 10", "unit": "µM"}]}, {"molecule": "CC1(C)C[C@@H]1C(=O)N1CC2(CN(C(=O)c3cnn(Cc4ccccc4)c3)C[C@H]2C(=O)NCc2ccc(Cl)nn2)C1", "note": "[I-376]", "values": [{"measurement": "IC50", "setting": "[1]", "value": "> 20", "unit": "µM"}, {"measurement": "IC50", "setting": "Kuramochi cells", "value": "> 10", "unit": "µM"}]}, {"molecule": "CC1(C)C[C@@H]1C(=O)N1CC2(CN(C(=O)c3cnn(Cc4ccccc4)c3)C[C@H]2C(=O)NCc2ccc(C3CCCCC3)nn2)C1", "note": "[I-377]", "values": [{"measurement": "IC50", "setting": "[1]", "value": "> 20", "unit": "µM"}, {"measurement": "IC50", "setting": "Kuramochi cells", "value": "> 10", "unit": "µM"}]}, {"molecule": "Cc1ccc(CNC(=O)[C@@H]2CN(C(=O)c3cncs3)CC23CN(C(=O)[C@H]2CC2(C)C)C3)nn1", "note": "[I-378]", "values": [{"measurement": "IC50", "setting": "[1]", "value": "> 20", "unit": "µM"}, {"measurement": "IC50", "setting": "Kuramochi cells", "value": "> 10", "unit": "µM"}]}]}
